According to patent publication US20240181000A1, “LGG-DERIVED PEPTIDES AND METHODS OF USE THEREOF” (Ohio State Innovation Foundation, priority 2021, published 2024):
No end group written: not given here.

Experiments:
[1] = tested on: Biofilm embedded ST; assay: MBEC Assay; assay type: cell-based, Salmonella enterica; conditions: at MICs; untreated 6.46 ± 0.09
Description: (§1) Peptides effect against biofilm embedded Salmonella: To analyze the ability of the peptides (P1, P2, and P4) to retain their inhibitory characteristics against biofilm protected Salmonella, Innovotech's MBEC Assay® (Innovotech Inc., AB, Canada) was conducted as previously detailed. Initially, 150 μL of 5×10^7 CFU/mL adjusted ST or SE suspension in LB media was aliquoted into the wells of MBEC inoculator plates containing polystyrene pegs and incubated for 36 h on a rocker platform at 37° C. to allow the biofilm formation. After biofilm formation, the pegs were washed to remove loosely adherent planktonic bacteria and transferred to a new 96-well plate containing peptides at MICs, with relevant controls, in 200 μL 25% LB media. The diluted LB media was used because it allows for slow bacterial growth to promote biofilm formation due to limited nutrients. The plate was incubated for 18 h at 37° C. with rotation at 150 rpm. Sterile media and DMSO were used as controls. Following incubation, the MICs of peptides in challenge plate were recorded. The pegs were transferred to new 96-well plate containing PBS and sonicated for 30 minutes to disrupt the biofilm. The sonicated suspensions were then ten-fold serially diluted and plated on LB agar plates to enumerate the biofilm protected bacteria and determine the minimum biofilm eradication concentration (MBEC) of peptides. Three independent experiments were conducted to ensure accuracy.

[2] = tested on: Biofilm embedded SE; assay: MBEC Assay; assay type: cell-based, Salmonella enterica; conditions: at MICs; untreated 6.77 ± 0.02
Description: as §1

[3] = tested on: commensal bacteria; assay: Peptide activity against commensal bacteria; assay type: cell-based; conditions: at MICs
Description: Peptide activity against commensal bacteria: Peptides 1, 2, and 4 were used to assess if they would inhibit commensal microbes. The commensal bacteria used along with their culture requirements are described in Table 25. Peptides at their MICs were added to 100 μL of known concentration of commensal bacteria and incubated under their required conditions. OD600 of cultures was measured to assess the effect of peptides on bacterial growth.

[4] = tested on: APEC O78 membrane; assay: Bacterial cytological profiling (confocal microscopy); assay type: cell-based, E. coli; conditions: 5×MIC, 3 h
Description: Bacterial cytological profiling (BCP): To identify the mode of action (MOA) of peptides (P1, P2, and P3), BCP approach was used as described previously. […] Following incubation, cultures were centrifuged, and bacteria was resuspended in 100 μL sterile water. FM4-64 (1 μg/mL; Invitrogen™ Molecular Probes™) and Syto-9 (5 μM; Invitrogen™ Molecular Probes™) stains were added to the bacterial cultures and incubated at 4° C. for 45 mins with shaking at 150 rpm. The stained bacteria were centrifuged, pelleted, and resuspended in 10 μL sterile water. The bacterial suspension (3 μL) was transferred onto glass slides containing thin layer of 1.2% agar and 20% LB media for confocal microscopy. Microscopy was performed using Leica TCS SP6 confocal scanning microscope (FM4-64-excitation 515 nm and emission 640 nm: Syto-9-excitation 485 nm and emission 498 nm) at Molecular and Cellular Imaging Center (MCIC), The Ohio State University (mcic.osu.edu/microscopy). Untreated bacterial culture was used as control.

[5] = tested on: Salmonella enterica subsp. enterica serovar Typhimurium LT2 (ST); assay: Anti-Salmonella growth inhibition and MIC; assay type: cell-based; conditions: No treatment
Description: Primary screening for anti-Salmonella activity of peptides: The inhibitory effect of the peptides was accessed as described previously. ST was grown overnight and adjusted to 5×10^5 CFU/mL; 100 microliters of this measured concentration was placed into the wells of a 96 well plate. Peptides 1-6 were added to the well at 12 mM concentration and plate was incubated in a TECAN Sunrise™ absorbance microplate reader at 37° C. with kinetic absorbance measurements taken every 30 minutes for 12 h. The growth inhibitory activity was calculated with the formula (OD600 DMSO treated well-OD600 peptide treated well)/OD600 DMSO treated well×100%. DMSO treated, Salmonella challenged wells and sterile media with no Salmonella challenge were used as controls. This experiment was done twice to ensure the accuracy and reproducibility of the results.
MIC was determined by selecting peptide concentration at which there is no increased growth (no increase in OD), given indication of no ST growth. An independent repeat experiment was conducted.
Heat and protease tolerance of peptides: P1, P2, and P4 were heated for 6 minutes at 86° C. or treated with protease proteinase K, 200 μg/mL at 50° C. for 30 minutes. After which, the treated and/or heated peptides at their respective MICs were evaluated in the inhibition assay with Salmonella. The protocol from above was repeated in the Tecan with the same controls. […]

[6] = tested on: ST; assay: Alanine scanning SAR, anti-Salmonella activity; assay type: cell-based, Salmonella enterica
Description: Relative Importance was calculated using formula: (percent growth in analogue-percent growth in original peptide)/(percent growth in DMSO-treated control-percent growth in original peptide)×100.
Structural-activity relationship (SAR) study: Structure activity relationship analysis was used to better determine the important amino acids required for Anti-Salmonella activity of P1 and P2. Alanine scanning libraries of P1 and P2 were synthesized from Genscript (Table 28; (www.genscript.com/alanine_scanning.html) and tested for inhibitory activity as described above. Relative importance [(percent growth in analogue-percent growth in original peptide)/(percent growth in DMSO-treated control-percent growth in original peptide)×100] was used to identify crucial amino acids of each amino acid residue of the peptide. Two independent experiments were conducted to ensure accuracy.

| Substance | Biofilm embedded ST [1] [Log CFU/ml] | Biofilm embedded SE [2] [Log CFU/mL] | Growth of Bacteroides thetaiotaomicron [3] | Growth of E. coli Nissle 1917 and E. coli G58-1 [3] | Growth of Gram-positive commensal bacteria [3] | APEC membrane in confocal microscopy (FM4-64/SYTO-9) [4] | MIC against ST [5] [mM] | Relative importance of Asparagine in P2 [6] [%] | Relative importance of Aspartate in P2 [6] [%] | Relative importance of Proline in P2 [6] | Relative importance of glutamic acid in P2 [6] [%] | Relative importance of lysine in P2 [6] [%] |
| --- | --- | --- | --- | --- | --- | --- | --- | --- | --- | --- | --- | --- |
| PDENK [Peptide P2, PDENK] | 0.00 ± 0.00 | 0.00 ± 0.00 | no inhibition | inhibited | No growth inhibition | no or minimally visible APEC membrane | 15 | 35 | 82 | zero relative importance | 77 | 32 |
| MLNERVK [Peptide P4, MLNERVK] | 0.00 ± 0.00 | 0.00 ± 0.00 | no inhibition | inhibited | No growth inhibition | – | 18 | – | – | – | – | – |
